Legend:
Thromboxane A2 receptor = target: T1, Thromboxane A2 receptor (Homo sapiens, UniProt P21731); type: functional, cell-based
T1 sequence (P21731 whole entry): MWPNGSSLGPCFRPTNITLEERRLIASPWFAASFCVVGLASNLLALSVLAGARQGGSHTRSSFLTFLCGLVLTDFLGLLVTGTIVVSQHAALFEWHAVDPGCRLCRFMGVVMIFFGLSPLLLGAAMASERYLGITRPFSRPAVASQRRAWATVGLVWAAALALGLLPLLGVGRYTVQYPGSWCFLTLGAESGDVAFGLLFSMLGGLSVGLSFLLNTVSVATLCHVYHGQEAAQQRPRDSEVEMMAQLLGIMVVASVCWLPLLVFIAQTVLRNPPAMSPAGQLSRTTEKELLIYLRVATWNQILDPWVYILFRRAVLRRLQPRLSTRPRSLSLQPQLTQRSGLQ

[1] = target: 3',5'-cyclic-AMP phosphodiesterase 4A (Homo sapiens, UniProt P27815); type: functional
[2] = target: T2, 5-hydroxytryptamine receptor 1A (Homo sapiens, UniProt P08908)
T2 sequence (P08908 whole entry): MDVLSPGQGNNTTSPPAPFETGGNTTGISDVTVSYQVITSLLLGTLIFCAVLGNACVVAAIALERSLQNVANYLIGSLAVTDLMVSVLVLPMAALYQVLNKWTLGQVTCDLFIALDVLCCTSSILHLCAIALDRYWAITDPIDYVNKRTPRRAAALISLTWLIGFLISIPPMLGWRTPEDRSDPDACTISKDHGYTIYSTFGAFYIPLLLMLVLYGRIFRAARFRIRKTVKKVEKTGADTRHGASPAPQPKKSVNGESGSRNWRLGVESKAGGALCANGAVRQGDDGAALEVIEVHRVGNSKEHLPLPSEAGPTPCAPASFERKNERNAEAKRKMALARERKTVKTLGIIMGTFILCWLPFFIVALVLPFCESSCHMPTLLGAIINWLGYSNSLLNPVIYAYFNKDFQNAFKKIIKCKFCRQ

Acetylcholinesterase = Acetylcholinesterase (Homo sapiens, UniProt P22303); type: functional
[3] = target: cGMP-inhibited 3',5'-cyclic phosphodiesterase 3A (Homo sapiens, UniProt Q14432); type: functional
[4] = target: Prostaglandin G/H synthase 1 (Homo sapiens, UniProt P23219); type: functional
[5] = target: T3, Muscarinic acetylcholine receptor M2 (Homo sapiens, UniProt P08172); type: functional, cell-based
T3 sequence (P08172 whole entry): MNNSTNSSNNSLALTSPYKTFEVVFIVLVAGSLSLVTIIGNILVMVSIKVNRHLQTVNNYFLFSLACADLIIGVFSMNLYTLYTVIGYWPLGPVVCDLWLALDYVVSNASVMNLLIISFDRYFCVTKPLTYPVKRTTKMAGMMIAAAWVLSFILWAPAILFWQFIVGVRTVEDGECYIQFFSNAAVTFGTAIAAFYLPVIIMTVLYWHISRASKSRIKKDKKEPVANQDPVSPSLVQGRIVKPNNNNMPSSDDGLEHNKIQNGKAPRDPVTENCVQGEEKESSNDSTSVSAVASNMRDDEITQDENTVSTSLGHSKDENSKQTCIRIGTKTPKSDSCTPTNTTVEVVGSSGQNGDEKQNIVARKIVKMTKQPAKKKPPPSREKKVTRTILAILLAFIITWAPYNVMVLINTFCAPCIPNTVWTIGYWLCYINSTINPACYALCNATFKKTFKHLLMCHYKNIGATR

Glucocorticoid receptor = target: T4, Glucocorticoid receptor (Homo sapiens, UniProt P04150)
T4 sequence (P04150 whole entry): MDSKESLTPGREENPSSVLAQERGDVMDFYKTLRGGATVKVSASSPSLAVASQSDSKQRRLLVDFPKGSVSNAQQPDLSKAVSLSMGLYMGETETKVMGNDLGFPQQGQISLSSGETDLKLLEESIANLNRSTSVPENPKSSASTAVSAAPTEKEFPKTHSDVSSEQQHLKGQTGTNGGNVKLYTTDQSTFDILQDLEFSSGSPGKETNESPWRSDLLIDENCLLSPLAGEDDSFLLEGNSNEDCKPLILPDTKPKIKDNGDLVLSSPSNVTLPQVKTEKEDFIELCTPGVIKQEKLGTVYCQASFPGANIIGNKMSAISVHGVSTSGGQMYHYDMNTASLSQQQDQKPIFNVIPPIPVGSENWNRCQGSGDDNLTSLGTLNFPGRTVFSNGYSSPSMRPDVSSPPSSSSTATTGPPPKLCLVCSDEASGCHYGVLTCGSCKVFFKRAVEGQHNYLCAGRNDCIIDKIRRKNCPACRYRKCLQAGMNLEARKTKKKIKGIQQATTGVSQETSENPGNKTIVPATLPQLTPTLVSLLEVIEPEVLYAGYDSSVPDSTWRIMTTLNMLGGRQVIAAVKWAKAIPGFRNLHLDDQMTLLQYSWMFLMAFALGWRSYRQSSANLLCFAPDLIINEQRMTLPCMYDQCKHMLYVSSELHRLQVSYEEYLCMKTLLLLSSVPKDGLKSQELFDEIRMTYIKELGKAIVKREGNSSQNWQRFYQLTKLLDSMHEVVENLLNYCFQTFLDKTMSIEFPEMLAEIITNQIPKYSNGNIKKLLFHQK

[6] = target: Glutamate receptor ionotropic, NMDA 1 (Rattus norvegicus, UniProt P35439)
Also: assay procedure not described here.

Acetylcholinesterase, sequence (P22303 whole entry): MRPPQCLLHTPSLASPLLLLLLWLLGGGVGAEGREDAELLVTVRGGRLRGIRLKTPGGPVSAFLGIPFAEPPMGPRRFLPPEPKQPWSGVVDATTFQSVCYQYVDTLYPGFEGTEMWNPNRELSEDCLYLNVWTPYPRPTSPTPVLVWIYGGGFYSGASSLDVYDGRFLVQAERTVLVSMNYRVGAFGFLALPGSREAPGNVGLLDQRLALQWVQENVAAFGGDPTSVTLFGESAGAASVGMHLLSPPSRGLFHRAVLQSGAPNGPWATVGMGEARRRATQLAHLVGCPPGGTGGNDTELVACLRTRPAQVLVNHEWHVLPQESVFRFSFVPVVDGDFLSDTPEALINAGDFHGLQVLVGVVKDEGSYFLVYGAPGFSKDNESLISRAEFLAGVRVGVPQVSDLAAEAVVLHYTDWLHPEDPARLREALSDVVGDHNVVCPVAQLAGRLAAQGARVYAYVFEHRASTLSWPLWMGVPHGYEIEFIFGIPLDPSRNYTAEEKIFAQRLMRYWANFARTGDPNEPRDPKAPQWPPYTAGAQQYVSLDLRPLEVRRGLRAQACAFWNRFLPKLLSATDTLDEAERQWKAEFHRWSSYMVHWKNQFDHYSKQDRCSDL
3',5'-cyclic-AMP phosphodiesterase 4A, sequence (P27815 whole entry): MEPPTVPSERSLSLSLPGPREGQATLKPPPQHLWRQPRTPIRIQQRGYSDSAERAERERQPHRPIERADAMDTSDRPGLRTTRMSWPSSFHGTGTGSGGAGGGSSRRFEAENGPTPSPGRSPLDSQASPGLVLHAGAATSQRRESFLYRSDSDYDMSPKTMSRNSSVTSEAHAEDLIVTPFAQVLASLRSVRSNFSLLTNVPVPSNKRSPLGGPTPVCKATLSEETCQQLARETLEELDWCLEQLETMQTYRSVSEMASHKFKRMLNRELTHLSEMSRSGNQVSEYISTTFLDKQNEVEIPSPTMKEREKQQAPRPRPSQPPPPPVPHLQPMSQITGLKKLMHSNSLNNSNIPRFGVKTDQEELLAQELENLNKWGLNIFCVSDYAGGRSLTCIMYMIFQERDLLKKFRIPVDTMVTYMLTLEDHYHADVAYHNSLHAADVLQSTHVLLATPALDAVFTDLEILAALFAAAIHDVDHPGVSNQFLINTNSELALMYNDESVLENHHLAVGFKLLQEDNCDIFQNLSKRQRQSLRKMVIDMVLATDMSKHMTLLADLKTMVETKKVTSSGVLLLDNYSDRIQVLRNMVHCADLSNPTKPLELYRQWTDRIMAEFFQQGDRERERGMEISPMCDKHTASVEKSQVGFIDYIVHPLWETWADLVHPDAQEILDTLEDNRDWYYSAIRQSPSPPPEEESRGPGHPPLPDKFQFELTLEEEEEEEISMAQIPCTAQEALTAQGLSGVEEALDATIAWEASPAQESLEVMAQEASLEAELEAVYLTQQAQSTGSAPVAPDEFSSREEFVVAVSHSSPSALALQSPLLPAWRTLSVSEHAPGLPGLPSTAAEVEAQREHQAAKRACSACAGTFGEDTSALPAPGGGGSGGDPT
cGMP-inhibited 3',5'-cyclic phosphodiesterase 3A, sequence (Q14432 whole entry): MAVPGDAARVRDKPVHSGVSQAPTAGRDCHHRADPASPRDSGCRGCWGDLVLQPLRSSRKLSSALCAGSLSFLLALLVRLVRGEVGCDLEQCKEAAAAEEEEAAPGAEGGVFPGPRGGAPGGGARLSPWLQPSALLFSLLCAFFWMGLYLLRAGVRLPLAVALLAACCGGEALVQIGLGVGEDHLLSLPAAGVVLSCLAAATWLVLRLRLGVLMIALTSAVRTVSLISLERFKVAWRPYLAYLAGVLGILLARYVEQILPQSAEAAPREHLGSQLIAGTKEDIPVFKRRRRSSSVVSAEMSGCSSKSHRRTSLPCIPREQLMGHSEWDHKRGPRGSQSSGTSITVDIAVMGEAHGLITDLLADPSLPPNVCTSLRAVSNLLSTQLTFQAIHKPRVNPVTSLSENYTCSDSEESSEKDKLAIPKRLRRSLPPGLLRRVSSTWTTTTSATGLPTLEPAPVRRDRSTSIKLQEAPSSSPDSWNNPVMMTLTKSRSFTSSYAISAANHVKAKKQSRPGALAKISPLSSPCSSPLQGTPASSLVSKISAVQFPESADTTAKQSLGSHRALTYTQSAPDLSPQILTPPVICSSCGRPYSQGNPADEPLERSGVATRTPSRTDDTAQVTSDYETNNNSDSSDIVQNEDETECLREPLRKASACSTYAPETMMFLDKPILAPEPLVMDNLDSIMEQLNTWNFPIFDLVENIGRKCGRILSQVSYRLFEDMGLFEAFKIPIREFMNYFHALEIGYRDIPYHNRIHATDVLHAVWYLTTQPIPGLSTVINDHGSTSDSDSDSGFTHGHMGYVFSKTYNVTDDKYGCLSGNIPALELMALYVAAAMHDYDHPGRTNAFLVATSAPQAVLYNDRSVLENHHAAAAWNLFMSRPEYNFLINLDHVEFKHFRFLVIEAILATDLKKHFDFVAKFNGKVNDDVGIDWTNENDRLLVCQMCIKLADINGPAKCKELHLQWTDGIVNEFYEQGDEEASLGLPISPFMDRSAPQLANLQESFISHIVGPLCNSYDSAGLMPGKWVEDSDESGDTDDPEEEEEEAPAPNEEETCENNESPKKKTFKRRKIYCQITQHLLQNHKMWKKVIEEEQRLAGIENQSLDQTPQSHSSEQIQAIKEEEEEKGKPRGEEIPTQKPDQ
Prostaglandin G/H synthase 1, sequence (P23219 whole entry): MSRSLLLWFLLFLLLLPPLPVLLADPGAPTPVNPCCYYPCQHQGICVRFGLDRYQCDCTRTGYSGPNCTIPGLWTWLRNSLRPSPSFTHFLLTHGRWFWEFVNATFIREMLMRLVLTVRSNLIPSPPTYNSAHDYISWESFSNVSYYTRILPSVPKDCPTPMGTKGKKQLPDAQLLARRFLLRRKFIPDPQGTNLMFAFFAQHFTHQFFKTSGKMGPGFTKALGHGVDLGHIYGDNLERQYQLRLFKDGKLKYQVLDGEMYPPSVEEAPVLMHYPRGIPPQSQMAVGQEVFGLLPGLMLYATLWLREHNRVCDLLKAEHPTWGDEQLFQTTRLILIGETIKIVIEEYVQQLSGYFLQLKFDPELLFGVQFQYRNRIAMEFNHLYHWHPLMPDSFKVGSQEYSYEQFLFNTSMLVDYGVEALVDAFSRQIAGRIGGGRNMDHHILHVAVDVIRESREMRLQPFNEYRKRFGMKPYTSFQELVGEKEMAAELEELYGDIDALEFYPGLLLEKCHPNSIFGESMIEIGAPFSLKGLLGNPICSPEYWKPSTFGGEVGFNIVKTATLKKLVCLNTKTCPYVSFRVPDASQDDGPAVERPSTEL

| SMILES | AC50 (Thromboxane A2 receptor) | AC50 [1] | AC50 [2] | AC50 (Acetylcholinesterase) | AC50 [3] | AC50 [4] | AC50 [5] | AC50 (Glucocorticoid receptor) | AC50 [6] |
| --- | --- | --- | --- | --- | --- | --- | --- | --- | --- |
| Sc1ncnc2nc[nH]c12 [MERCAPTOPURINE ANHYDROUS] | > 30 µM | > 30 µM | > 30 µM | > 30 µM | > 30 µM | > 30 µM | – | – | – |
| Cc1cc(O)cc(C)c1Cl [CHLOROXYLENOL] | > 30 µM | > 30 µM | > 30 µM | > 30 µM | > 30 µM | > 3 µM | – | – | – |
| O=C1c2ccccc2C(=O)C1C(=O)C(c1ccccc1)c1ccccc1 [DIPHENADIONE] | 7.02 µM | > 30 µM | > 30 µM | > 30 µM | > 30 µM | 15.6 µM | – | – | – |
| CCO/N=C(\C(=O)N[C@@H]1C(=O)N2C(C(=O)[O-])=C(Sc3nc(-c4cc[n+](C)cc4)cs3)CS[C@H]12)c1nsc(N)n1 [CEFTAROLINE] | > 30 µM | > 30 µM | > 30 µM | > 30 µM | > 30 µM | > 30 µM | – | – | – |
| Cc1c(-c2ccccc2)oc2c(C(=O)OCCN3CCCCC3)cccc2c1=O [FLAVOXATE] | > 30 µM | 6.12 µM | 3.11 µM | 17.6 µM | > 30 µM | > 30 µM | – | – | – |
| O=C1CC[C@@]2(O)[C@H]3Cc4ccc(O)c5c4[C@@]2(CCN3CC2CC2)[C@H]1O5 [NALTREXONE] | > 30 µM | > 30 µM | > 30 µM | > 30 µM | > 30 µM | > 30 µM | – | – | – |
| CCC(=O)c1c(O)cc(O)cc1O [FLOPROPIONE] | > 30 µM | > 30 µM | > 30 µM | > 30 µM | > 30 µM | 22.3 µM | – | – | – |
| CC(=O)OC[C@H]1O[C@@H](n2ccc(=O)[nH]c2=O)[C@H](OC(C)=O)[C@@H]1OC(C)=O [URIDINE TRIACETATE] | > 30 µM | > 30 µM | > 30 µM | > 30 µM | > 30 µM | > 30 µM | – | – | – |
| CC(N/C(=N\C#N)Nc1ccncc1)C(C)(C)C (configuration not stated) [PINACIDIL ANHYDROUS] | > 30 µM | > 30 µM | > 30 µM | > 30 µM | > 30 µM | > 30 µM | – | – | – |
| Cc1cc2c(cc1CC(=O)c1sccc1S(=O)(=O)Nc1onc(C)c1Cl)OCO2 [SITAXENTAN] | > 30 µM | 25 µM | > 30 µM | > 30 µM | > 30 µM | > 30 µM | – | – | – |
| O=C1[C@H](CC[C@H](O)c2ccc(F)cc2)[C@@H](c2ccc(O)cc2)N1c1ccc(F)cc1 [EZETIMIBE] | > 30 µM | > 30 µM | > 30 µM | > 30 µM | > 30 µM | > 30 µM | – | – | – |
| Cc1ccc(O)c2ncccc12 [TILIQUINOL] | > 30 µM | > 30 µM | > 30 µM | > 30 µM | > 30 µM | > 30 µM | – | – | – |
| O=C1c2c(O)c(=O)ccn2N([C@@H]2c3ccccc3SCc3c2ccc(F)c3F)[C@@H]2COCCN12 [BALOXAVIR] | > 30 µM | > 30 µM | > 30 µM | > 30 µM | > 30 µM | > 30 µM | – | – | – |
| CN1CCCC(CN2c3ccccc3Sc3ccccc32)C1 (configuration not stated) [MEPAZINE] | > 30 µM | > 30 µM | > 30 µM | > 30 µM | > 30 µM | 21.6 µM | – | – | – |
| OC[C@@H](O)[C@@H](O)[C@H](O)[C@H](O)CO [MANNITOL] | > 30 µM | > 30 µM | > 30 µM | > 30 µM | > 30 µM | > 30 µM | – | – | – |
| C#C[C@]1(O)CC[C@H]2[C@@H]3CCC4=CC(=O)CC[C@@H]4[C@H]3CC[C@@]21CC [LEVONORGESTREL] | > 30 µM | > 30 µM | > 30 µM | > 30 µM | > 30 µM | > 30 µM | – | – | – |
| Cc1cccc(C)c1OCC(C)N (configuration not stated) [MEXILETINE] | – | – | – | – | – | – | > 30 µM | – | – |
| CCOC(=O)c1ccc(O)cc1 [ETHYLPARABEN] | > 30 µM | > 30 µM | > 30 µM | > 30 µM | > 30 µM | > 1 µM | – | – | – |
| CC(C)NNC(=O)c1ccncc1 [IPRONIAZID] | – | – | – | – | – | – | > 30 µM | – | – |
| C[N+](C)(C)CCCCCCCCCC[N+](C)(C)C [DECAMETHONIUM] | > 30 µM | > 30 µM | > 30 µM | 9.15 µM | > 30 µM | > 30 µM | – | – | – |
| NC1=NC(=O)C(c2ccccc2)O1 (configuration not stated) [PEMOLINE] | – | – | – | – | – | – | > 10 µM | > 30 µM | > 10 µM |
| CC(C)OC(=O)[C@H](C)N[P@](=O)(OC[C@H]1O[C@@H](n2ccc(=O)[nH]c2=O)[C@](C)(F)[C@@H]1O)Oc1ccccc1 [SOFOSBUVIR] | > 30 µM | > 30 µM | > 30 µM | > 30 µM | > 30 µM | > 30 µM | – | – | – |
| C[N+]1(C)[C@@H]2C[C@@H](OC(=O)[C@H](CO)c3ccccc3)C[C@H]1[C@@H]1O[C@@H]12 [METHSCOPOLAMINE] | > 30 µM | > 30 µM | > 30 µM | > 30 µM | > 30 µM | > 30 µM | – | – | – |
| COC(=O)C1=C(C)NC(C)=C(C(=O)OCC(C)C)C1c1ccccc1[N+](=O)[O-] (configuration not stated) [NISOLDIPINE] | – | – | – | – | – | – | > 10 µM | 8.8 µM | > 10 µM |
| O=C(COc1ccc(Cl)cc1)N1CCN(Cc2ccc3c(c2)OCO3)CC1 [FIPEXIDE] | > 30 µM | > 30 µM | > 30 µM | > 30 µM | > 30 µM | > 30 µM | – | – | – |
| CC(=O)Oc1c(C)cc(OCC(O)CNC(C)C)c(C)c1C (configuration not stated) [METIPRANOLOL] | > 30 µM | > 30 µM | > 30 µM | > 30 µM | > 30 µM | > 30 µM | – | – | – |
| CC1(C)O[C@@H]2C[C@H]3[C@@H]4C[C@H](F)C5=CC(=O)CC[C@]5(C)[C@H]4[C@@H](O)C[C@]3(C)[C@]2(C(=O)CO)O1 [FLURANDRENOLIDE] | > 30 µM | > 30 µM | > 30 µM | > 30 µM | > 30 µM | > 30 µM | – | – | – |
| CC(=O)OCC(=O)[C@@]1(O)CC[C@H]2[C@@H]3CCC4=CC(=O)CC[C@]4(C)[C@H]3C(=O)C[C@@]21C [CORTISONE ACETATE] | – | – | – | – | – | – | – | – | > 30 µM |
| CN(C)C(=O)Oc1ccc[n+](C)c1 [PYRIDOSTIGMINE] | > 30 µM | > 30 µM | > 30 µM | – | > 30 µM | > 30 µM | – | – | – |
